Experimental data as given in patent US11576979B2, “Pyrrolobenzodiazepine prodrugs and antibody conjugates thereof” (GENENTECH, INC., priority 2016, dated 2023).
“And” between values parts separate entries of the source, which are not always exact repeats. Identical values can stand only once. Like-named read-outs stand apart in the source and are kept apart here.

Columns and labels:
[1] = tested on: HCT-116; experiment: CELLTITER GLO cell proliferation assay (Example 6); type: cell-based; conditions: Homo sapiens, HCT-116; Table 4; read-out: IC50 potency HCT-116
Protocol: (§1) The toxicity of PBD monomer disulfide prodrugs and diaphorase prodrugs were evaluated against KPL-4, WSU-DLCL2, HCT-116, HCC1395 and Jurkat cell cultures. […] KPL-4 cells further have a high expression of DTD on the order of about 839 nRPKM (where nRPKM refers to normalized reads per Kb of transcript length per million mapped read).
(§2) Potency of the disulfide and DT-diaphorase prodrugs was measured by a cell proliferation assay employing the following protocol (CELLTITER GLO™ Luminescent Cell Viability Assay, Promega Corp.). First, an aliquot of 40 ul of cell culture containing about 8000 cells of WSU-DLCL2 cells (low NQO1 gene and GSH level), 4000 cells of KPL-4 (high NQO1 gene and GSH level), HCT-116 cells, HCC1395 cells or Jurkat cells in RPMI-1640 culture medium (supplemented with 10% fetal bovine serum, 2 mM glutamine, 50 uM cystine, and 0.015 g/L L-methionine) was deposited in each well of a 384-well flat clear bottom white polystyrene tissue culture-treated microplates (Corning, N.Y.). Second, control wells were prepared containing medium with and without cells. Third, compounds with and without disulfide or DT-diaphorase prodrugs (n=3) were added to the experimental wells using ECHO acoustic liquid handling technology (Labcyte Inc, Sunnyvale, Calif.) to create a 10-point dose-response curve in triplicate with 1:3× serial dilution. Fourth, cells were cultured in a humidified incubator set at 37° C. and maintaining an atmosphere of 5% CO2. Fifth, the plates were equilibrated to room temperature for approximately 30 minutes. Sixth, a volume of CELLTITER GLO™ Reagent equal to the volume of cell culture medium present in each well was added. Seventh, the contents were mixed for 10 minutes on an orbital shaker in the dark to induce cell lysis. Eighth, the plate was incubated at room temperature for 30 minutes to stabilize the luminescence signal. Ninth, luminescence was recorded and reported in graphs as % activity where RLU (relative luminescence units) was normalized to controls (no compound control minus no cell control). Tenth, data was plotted as individual points for each replicate (n=3) for each antibody as the mean of luminescence for each set of replicates, with standard deviation error bars.

[2] = tested on: KPL-4; experiment: CELLTITER GLO cell proliferation assay (Example 6); type: cell-based; conditions: data in parenthesis = repeat evaluations
Protocol: as §1, §2

[3] = tested on: WSU-DLCL2; experiment: CELLTITER GLO cell proliferation assay (Example 6); type: cell-based; conditions: Homo sapiens, data in parenthesis = repeat evaluations
Protocol: as §1, §2

[4] = tested on: SK-BR-3; experiment: CellTiter-Glo toxicity, 3 days (Example 7); type: cell-based; conditions: Homo sapiens, SK-BR-3, 72 h
Protocol: The toxicity of PBD monomer disulfide prodrugs 1 to 4, PBD dimer disulfide prodrugs 1 and 4, PBD monomer control 1 and PBD dimer control 1 were evaluated against SK-BR-3 cell cultures. […] The HER2-positive breast cancer cell line, SK-BR-3, was obtained internally at Genentech after having been verified by sequence analysis. The cells were grown at 37 Celsius in DMEM+10% FBS supplemented with 2 mM L-glutamine for the duration of this assay. On the first day of the experiment, designated “Day −1”, SK-BR-3 cells were harvested from tissue culture flasks, counted, and then seeded into 96-well plates at a concentration of 7,500 cells per well. The next day, designated “Day 0”, cell culture media was removed from the cells and replaced with 100 uL of fresh media containing a serial dilution (1:3) of the compounds in Table 5 below. The plates were then returned to the 37 Celsius incubator and allowed to incubate for 3 days. On “Day 3” of the assay, the plates were removed from the incubator and allowed to equilibrate to room temperature before adding 100 uL of room-temperature CellTiter-Glo reagent (Promega). The plates were then agitated at 300 rpm for 10 minutes. The luminescence signal generated from this reaction was recorded on an Envision plate reader (Perkin-Elmer). The data were arranged in Excel (Microsoft) and graphed in Kaleidagraph (Synergy Software).

[5] = tested on: Igrov-1; experiment: CellTiter-Glo toxicity, 4 days (Example 9); type: cell-based; conditions: Homo sapiens, IGROV-1, 96 h, 4 days of drug incubation; Table 7A
Protocol: (§3) The toxicity of various PBD monomer disulfide prodrugs and PBD dimer disulfide prodrugs was evaluated on UACC-257, Igrov-1 and A2058 cell lines. Cells were seeded in 384-well plate and treated with drug 24 hours later. After 4 days of drug incubation, the cell viability was determined using Promega CellTiter-Glo luminescent reagent, which measures ATP level (an indirect measure of cell number). The luminescent intensity was measured on PerkinElmer Envision reader. The relative cell viability was calculated by normalizing to non-drug treatment control and was graphed using KleidaGraph software package. IC50 value was determined as the concentration to obtain 50% of the maximum cell killing.

[6] = tested on: UACC-257; experiment: CellTiter-Glo toxicity, 4 days (Example 9); type: cell-based; conditions: Homo sapiens, UACC-257, 96 h, 4 days of drug incubation; Table 7A
Protocol: as §3

[7] = tested on: double strand DNA Oligos 1 and 2; experiment: DNA oligo binding, LC/MS/UV; conditions: 100 uM compound, 100 uM DNA, 1 hour, 37 C
Protocol: For DNA binding determination, the compounds were incubated at 100 μM with 100 μM double strand DNA Oligos 1 and 2 for 1 hour in 10 mM Bis-Tris, pH 7.1 at 37° C. The single strand DNA Oligos (5′-TATAGAATCTATA-3′ and 3′-ATATCTTAGATAT-5′) were synthesized at Genentech. The samples were analyzed by LC/MS/UV (210-450 nm) on Sciex TripleTOF 5600 on a Hypersil Gold C18 column (100×2.1, 1.9 Thermo Scientific). The column was eluted at 0.4 mL/min by a gradient of buffer A (50 mM hexafluoro-isopropanol and 15 mM diisopropylethylamine) to buffer B (50% A and 50% of 1:1 methanol:acetonitrile), 5% 0-0.5 min, 5-25% B 0.5-25 min, 25-95% B 25-40 min, and to 95% B 40-42 min. The % remaining was an average of the starting DNA oligos remaining in incubations (n=2). The products were characterized by LC/MS in a negative ESI ion mode.

[8] = tested on: A2058; experiment: CellTiter-Glo toxicity, 4 days (Example 9); type: cell-based; conditions: Homo sapiens, A2058, 96 h, 4 days of drug incubation; Table 7A
Protocol: as §3

[9] = Disulfide cleavage by cysteine, LC/MS; type: physicochemical; conditions: 15 uM compound, 0.2 mM cysteine, pH 7.0, 37 C
Protocol: (§4) For disulfide cleavage determination, the compounds were incubated at 15 μM with 0.2 mM cysteine or 4 mM GSH in 100 mM Tris buffer pH 7.0 containing 5% methanol at 37° C. Aliquots were taken at specified time points and the samples were analyzed by LC/MS on Sciex TripleTOF 5600 on a Hypersil Gold C18 column (100×2.1, 1.9 Thermo Scientific). The column was eluted by a gradient of buffer A (0.1% formic acid in 10 mM ammonium acetate) to buffer B (0.1% formic acid in 10 mM ammonium acetate in 90% acetonitrile), 5% B 0-0.5 min, 5-25% B 0.5-8 min, 25-75% B 8-13 min, and 75-95% B 13-13.5 min, 95% B 13.5-14.5 min, 95-5% B 14.5-15 min at 0.4 mL/min. All products were separated and characterized by LC/MS/MS in a positive ESI ion mode. All analytes had the protonated molecular MH+ as the major species with little source fragmentation. Full scan accurate mass peak areas were used to estimate relative abundance of each component.

[10] = Disulfide cleavage by glutathione (GSH), LC/MS; type: physicochemical; conditions: 15 uM compound, 4 mM GSH, pH 7.0, 37 C
Protocol: as §4

[11] = KPL4, read-out: IC50 potency KPL-4, Table 4
[12] = WSUDLCL2, read-out: IC50 potency WSU-DLCL2, Table 4

Work on C=C1C[C@H]2C=Nc3cc(OCCCCCOc4cc5c(cc4OC)C(=O)N4CC(=C)C[C@H]4C(O)N5C(=O)OCc4cn(C)c5c4C(=O)C(OC)=CC5=O)c(OC)cc3C(=O)N2C1 (stereo partly drawn) [PBD dimer diaphorase prodrug 3] yielded an IC50 [1] of 1.23 nM, an IC50 ([2]; KPL4, Table 4, read-out: IC50 potency KPL-4) of 1.87 nM and an IC50 ([3]; WSUDLCL2, Table 4, read-out: IC50 potency WSU-DLCL2) of 0.24 nM.
Work on C=C1C[C@H]2C=Nc3cc(OCCCCCOc4cc5c(cc4OC)C(=O)N4CC(=C)C[C@H]4C(O)N5C(=O)OCC4(SSCC)CCC4)c(OC)cc3C(=O)N2C1 (stereo partly drawn) [PBD dimer disulfide prodrug 1] yielded an IC50 ([4]; 3 days, read-out: SK-BR-3 IC50) of 2.39 nM, an IC50 [5] of 0.21 nM and an IC50 [6] of 2.2 nM. The “% DNA oligo remaining” value [7] was over 99.5%.
With C=C1C[C@H]2C(O)N(C(=O)OCC3(SSCC)CCC3)c3cc(OCCCCCOc4cc5c(cc4OC)C(=O)N4CC(=C)C[C@H]4C(O)N5C(=O)OCC4(SSCC)CCC4)c(OC)cc3C(=O)N2C1 (stereo partly drawn) [PBD dimer disulfide prodrug 4] the IC50 ([4]; read-out: SK-BR-3 IC50 (nM)) was 3.09 nM, the IC50 [5] was 2.5 nM and the IC50 [6] was 7.8 nM.
Work on C=C1C[C@H]2C(O)N(C(=O)OCCSSCC)c3cc(OC)c(OC)cc3C(=O)N2C1 (stereo partly drawn) [PBD monomer disulfide prodrug 1] yielded an IC50 [2, 11] of 324 nM, an IC50 [3, 12] of 274 nM and an IC50 ([4]; read-out: SK-BR-3 IC50 (nM)) of 331 nM. The IC50 [8] was 82.9 nM, the IC50 [5] was 123 nM and the IC50 [6] was 276 nM. For the same compound, the “% Remaining at 24 h by Cys” value [9] was 17.9% and the “% Remaining at 24 h by GSH” value [10] was 0.5%.
Work on C=C1C[C@H]2C(O)N(C(=O)OCCSSC(C)C)c3cc(OC)c(OC)cc3C(=O)N2C1 (stereo partly drawn) [PBD monomer disulfide prodrug 2] yielded an IC50 [2, 11] of 497 nM, an IC50 [3, 12] of 1020 nM and an IC50 ([4]; read-out: SK-BR-3 IC50 (nM)) of 1760 nM. For the same compound, the IC50 [8] was 635 nM, the IC50 [5] was 1870 nM and the IC50 [6] was 1860 nM. The “% Remaining at 24 h by Cys” value [9] was 77.6% and the “% Remaining at 24 h by GSH” value [10] was 0.4% and 0%.
With C=C1C[C@H]2C(O)N(C(=O)OCC3(SSCC)CCC3)c3cc(OC)c(OC)cc3C(=O)N2C1 (stereo partly drawn) [PBD monomer disulfide prodrug 3] the IC50 [2, 11] was 360 nM, the IC50 [3, 12] was 531 nM and the IC50 ([4]; read-out: SK-BR-3 IC50 (nM)) was 616 nM. The IC50 [8] was 75.2 nM, the IC50 [5] was 254 nM and the IC50 [6] was 356 nM. For the same compound, the “% Remaining at 24 h by Cys” value [9] was 73.5% and the “% Remaining at 24 h by GSH” value [10] was 2.90%.
With C=C1C[C@H]2C(O)N(C(=O)OCC(C)(C)SSC(C)(C)C)c3cc(OC)c(OC)cc3C(=O)N2C1 (stereo partly drawn) [PBD monomer disulfide prodrug 4] the IC50 [2, 11] was over 10000 nM, the IC50 [3, 12] was over 10000 nM and the IC50 ([4]; read-out: SK-BR-3 IC50 (nM)) was over 10000 nM. The IC50 [8] was 8110 nM, the IC50 [5] was 12600 nM and the IC50 [6] was 19200 nM. The “% Remaining at 24 h by Cys” value [9] was 99.9% and the “% Remaining at 24 h by GSH” value [10] was 99.9%.
